As usually defined, the viability is a read-out of living cells in per cent, often relative to untreated cells.

The series can be described thus: in vitro. The note with it: human, hek293t cells.
As to `CC(Cl)C(=O)N1C2CCC1CC1(C2)CC1(F)F` (stereo not shown) [6-N18, 2-chloro-1-{2',2'-difluoro-8-azaspiro[bicyclo[3.2.1]octane-3,1'-cyclopropan]-8-yl}propan-1-one], the viability at 48 h, 25 µM was 112%.

As for `CC(Cl)C(=O)NC(Cc1ccccc1)c1ncco1` (stereo not shown) [7-E12, 2-chloro-N-[1-(1,3-oxazol-2-yl)-2-phenylethyl]propanamide], the viability at 48 h, 25 µM is 84.4%.

For the compound `C=CC(=O)NC(CO)c1ccnn1C` (stereo not shown) [2-D17, N-[2-hydroxy-1-(1-methyl-1H-pyrazol-5-yl)ethyl]prop-2-enamide], the viability at 48 h, 25 µM was found to be 45.9%. As for `C=CC(=O)N(Cc1cn2ccccc2n1)C1CC1` [3-J21, N-cyclopropyl-N-({imidazo[1,2-a]pyridin-2-yl}methyl)prop-2-enamide], the figure is 73.1%; as for `CC(NC(=O)C(C#N)=Cc1ccccc1F)c1ccccc1` (stereo not shown) [8-P16, 2-cyano-3-(2-fluorophenyl)-N-(1-phenylethyl)prop-2-enamide], 61.8%. Regarding `COc1cc(C=C(C#N)C(=O)Nc2cccc(C)c2)c2c(c1)CC(C)O2` (stereo not shown) [8-N22, 2-cyano-3-(5-methoxy-2-methyl-2,3-dihydro-1-benzofuran-7-yl)-N-(3-methylphenyl)prop-2-enamide], the viability at 48 h, 25 µM turned out to be 83.2%. As for `COc1ccc(C=C(C#N)C(=O)Nc2ccc(Cl)cc2Cl)cc1` [8-K03, 2-cyano-N-(2,4-dichlorophenyl)-3-(4-methoxyphenyl)prop-2-enamide], the figure is 104%. The result for `C=CC(=O)N1CCC(C(=O)N2Cc3ccccc3C[C@H]2C(N)=O)CC1` [3-C19, (3S)-2-[1-(prop-2-enoyl)piperidine-4-carbonyl]-1,2,3,4-tetrahydroisoquinoline-3-carboxamide] reads 29.6%; that for `CC(C)NC(=O)C(C#N)=Cc1cccc(C(F)(F)F)c1` [9-J13, 2-cyano-N-(propan-2-yl)-3-[3-(trifluoromethyl)phenyl]prop-2-enamide], 33.9%; that for `CC(Cl)C(=O)NCC(c1ccc(Cl)cc1)n1cccn1` (stereo not shown) [7-J05, 2-chloro-N-[2-(4-chlorophenyl)-2-(1H-pyrazol-1-yl)ethyl]propanamide], 100%. As for `C=CC(=O)NCCc1nc(C)no1` [3-N19, N-[2-(3-methyl-1,2,4-oxadiazol-5-yl)ethyl]prop-2-enamide], the figure is 74.2%.

Regarding `O=C(CCl)NCCc1ccc2c(c1)OCCO2` [4-N11, 2-chloro-N-[2-(2,3-dihydro-1,4-benzodioxin-6-yl)ethyl]acetamide], the viability at 48 h, 25 µM was 18.9%. For the compound `C=CC(=O)NCC(=O)N1CCCO1` [1-H05, N-[2-(1,2-oxazolidin-2-yl)-2-oxoethyl]prop-2-enamide], the viability at 48 h, 25 µM amounted to 98.5%. As for `CC(Cl)C(=O)N1C2C=C(c3ccccc3)CC1CC2` (stereo not shown) [7-C09, 2-chloro-1-{3-phenyl-8-azabicyclo[3.2.1]oct-2-en-8-yl}propan-1-one], the figure is 81.3%. The result for `O=C(CCl)Nc1cc(S(=O)(=O)N2CCOCC2)ccc1Cl` [6-H03, 2-chloro-N-[2-chloro-5-(morpholine-4-sulfonyl)phenyl]acetamide] reads 1.8%; that for `C=CC(=O)Nc1ccc(C(=O)N2CCC3(CC2)OCCCO3)cc1` [2-D16, N-(4-{1,5-dioxa-9-azaspiro[5.5]undecane-9-carbonyl}phenyl)prop-2-enamide], 49.1%. On to `N#CC(=Cc1csc(-c2ccsc2)n1)C(=O)NC1CC1` [9-N18, 2-cyano-N-cyclopropyl-3-[2-(thiophen-3-yl)-1,3-thiazol-4-yl]prop-2-enamide], for which the viability at 48 h, 25 µM is 110%. As for `O=C(CCl)NCCc1cccc(Cl)c1` [5-O05, 2-chloro-N-[2-(3-chlorophenyl)ethyl]acetamide], the figure is 36.9%; as for `C=CC(=O)N1CCCCC1c1nc2ccccc2o1` (stereo not shown) [3-O20, 1-[2-(1,3-benzoxazol-2-yl)piperidin-1-yl]prop-2-en-1-one], 82.3%.

Source of the values: article PMC11995724, “Antibiotic target discovery by integrated phenotypic and activity-based profiling of electrophilic fragments” (Cell chemical biology, 2025).
